Measurements reported in PubChem BioAssay AID330 (DTP/NCI, 2004).
Values joined by “and” are separate entries in the source; they are usually repeats but may differ in a detail not shown here. Identical values can stand only once. Toxic doses and inconclusive results are not listed.

Test system: P388 leukemia ip, CD2F1 mice, survival T/C
Test: NCI In Vivo Anticancer Drug Screen. Data for tumor model P388 Leukemia (intraperitoneal) in CD2F1 (CDF1) mice
Details: endpoint: median survival time, higher = longer survival
Procedure, shortened: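 Mice carrying the transplanted tumor received test compound or vehicle. Survival was recorded in each group, and the value is the treated-group measurement divided by that of the vehicle-treated control group.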

[1] = dose: 100.0 mg/kg/injection, schedule: Q01DX009 (ip), vehicle: distilled water + Tween-80
[2] = dose: 200.0 mg/kg/injection, schedule: Q01DX009 (ip), vehicle: distilled water + Tween-80
[3] = dose: 25.0 mg/kg/injection, schedule: Q01DX009 (ip), vehicle: saline
[4] = dose: 50.0 mg/kg/injection, schedule: Q01DX009 (ip), vehicle: saline
[5] = dose: 100.0 mg/kg/injection, schedule: Q01DX009 (ip), vehicle: saline
[6] = dose: 200.0 mg/kg/injection, schedule: Q01DX009 (ip), vehicle: saline
[7] = dose: 400.0 mg/kg/injection, schedule: Q01DX009 (ip), vehicle: saline
[8] = dose: 6.25 mg/kg/injection, schedule: Q01DX009 (ip), vehicle: saline
[9] = dose: 60.0 mg/kg/injection, schedule: Q01DX005 (ip), vehicle: saline with Tween-80
[10] = dose: 120.0 mg/kg/injection, schedule: Q01DX005 (ip), vehicle: saline with Tween-80
[11] = dose: 100.0 mg/kg/injection, schedule: Q04DX003 (ip), vehicle: saline with Tween-80
[12] = dose: 200.0 mg/kg/injection, schedule: Q04DX003 (ip), vehicle: saline with Tween-80
[13] = dose: 400.0 mg/kg/injection, schedule: Q04DX003 (ip), vehicle: saline with Tween-80
[14] = dose: 50.0 mg/kg/injection, schedule: Q01DX005 (ip), vehicle: saline with Tween-80
[15] = dose: 100.0 mg/kg/injection, schedule: Q01DX009 (ip), vehicle: saline with Tween-80

Q: Which T/C (dose: 50.0 mg/kg/injection, schedule: Q01DX005 (ip), vehicle: distilled water + Tween-80) does the source give for `O=C(NO)c1cc(O)c(O)c(O)c1` here?
A: 121 % of control

Q: What about the T/C [1] of the same molecule?
A: 168 % of control

Q: And the T/C (dose: 200.0 mg/kg/injection, schedule: Q01DX005 (ip), vehicle: distilled water + Tween-80)?
A: 155 % of control

Q: And the T/C [2]?
A: 197 % of control

Q: Which T/C [3] does the source give for `O=C(O)CCCCCCCCCCNC(=O)Nc1cccc(C(F)(F)F)c1` here?
A: 88 % of control

Q: What about the T/C [4] of the same molecule?
A: 98 % of control

Q: And the T/C [5]?
A: 104 % of control

Q: What about the T/C [6] of the same molecule?
A: 111 % of control

Q: Which T/C [4] does the source give for `CSC(=S)N/N=C(\C)c1ccccn1` here?
A: 92 % of control

Q: And the T/C [5]?
A: 92 % of control

Q: What about the T/C [6] of the same molecule?
A: 99 % of control

Q: What about the T/C [7] of the same molecule?
A: 106 % of control

Q: Which T/C (dose: 5.0 mg/kg/injection, schedule: Q01DX009 (ip), vehicle: saline) does the source give for `CCC1CN2C(=N1)c1ccccc1-c1cc(Cl)ccc12` (centres undefined) here?
A: 106 % of control

Q: What about the T/C [8] of the same molecule?
A: 101 % of control and 102 % of control and 90 % of control

Q: And the T/C (dose: 10.0 mg/kg/injection, schedule: Q01DX009 (ip), vehicle: saline)?
A: 121 % of control and 124 % of control

Q: What about the T/C (dose: 12.5 mg/kg/injection, schedule: Q01DX009 (ip), vehicle: saline) of the same molecule?
A: 103 % of control and 106 % of control and 97 % of control

Q: What about the T/C (dose: 20.0 mg/kg/injection, schedule: Q01DX009 (ip), vehicle: saline) of the same molecule?
A: 117 % of control

Q: And the T/C [3]?
A: 101 % of control (2×) and 108 % of control

Q: And the T/C (dose: 40.0 mg/kg/injection, schedule: Q01DX009 (ip), vehicle: saline)?
A: 156 % of control

Q: What about the T/C [4] of the same molecule?
A: 103 % of control and 123 % of control and 94 % of control

Q: Which results are given for `N#Cc1c(-c2nc3ccccc3s2)c(=O)oc2cc(O)ccc12`?
A: T/C [9]: 99 % of control; T/C [10]: 95 % of control; T/C (dose: 240.0 mg/kg/injection, schedule: Q01DX005 (ip), vehicle: saline with Tween-80): 95 % of control

Q: What does the source list for `Cc1ccc(NC(=O)C(Cl)(Cl)Cl)cc1[N+](=O)[O-]`?
A: T/C [11]: 104 % of control; T/C [12]: 100 % of control; T/C [13]: 100 % of control

Q: With `C=C1CCN(c2ccccc2)C1=O` as the molecule, how does the T/C (dose: 4.0 mg/kg/injection, schedule: Q01DX009 (ip), vehicle: saline + alcohol) read?
A: 107 % of control

Q: And the T/C (dose: 8.0 mg/kg/injection, schedule: Q01DX009 (ip), vehicle: saline + alcohol)?
A: 92 % of control

Q: And the T/C (dose: 16.0 mg/kg/injection, schedule: Q01DX009 (ip), vehicle: saline + alcohol)?
A: 105 % of control

Q: And the T/C (dose: 32.0 mg/kg/injection, schedule: Q01DX009 (ip), vehicle: saline + alcohol)?
A: 101 % of control

Q: And the T/C (dose: 64.0 mg/kg/injection, schedule: Q01DX009 (ip), vehicle: saline + alcohol)?
A: 107 % of control

Q: Which T/C [14] does the source give for `CCOC(=O)C(NC(=O)C(Cl)Cl)C(O)c1ccccc1` (centres undefined) here?
A: 100 % of control

Q: And the T/C (dose: 100.0 mg/kg/injection, schedule: Q01DX005 (ip), vehicle: saline with Tween-80)?
A: 100 % of control

Q: What about the T/C (dose: 200.0 mg/kg/injection, schedule: Q01DX005 (ip), vehicle: saline with Tween-80) of the same molecule?
A: 89 % of control

Q: What does the source list for `Cc1nc2c(cnn2C)c(=O)n1-c1ccccc1`?
A: T/C (dose: 50.0 mg/kg/injection, schedule: Q01DX005 (ip), vehicle: Klucel (hydroxypropylcellulose) (HPC)): 96 % of control; T/C (dose: 100.0 mg/kg/injection, schedule: Q01DX005 (ip), vehicle: Klucel (hydroxypropylcellulose) (HPC)): 98 % of control; T/C (dose: 200.0 mg/kg/injection, schedule: Q01DX005 (ip), vehicle: Klucel (hydroxypropylcellulose) (HPC)): 100 % of control

Q: How did the T/C [9] turn out when `OC1(O)CCC1(O)OCCBr` (centres undefined) was run?
A: 92 % of control

Q: And the T/C [10]?
A: 108 % of control

Q: Which T/C [8] does the source give for `CCCS(=O)(=O)Nc1ccc(Nc2c3ccccc3nc3ccccc23)c(OC)c1` here?
A: 118 % of control

Q: What about the T/C [3] of the same molecule?
A: 150 % of control and 160 % of control

Q: And the T/C [4]?
A: 150 % of control

Q: Which T/C (dose: 12.5 mg/kg/injection, schedule: Q01DX009 (ip), vehicle: distilled water + Tween-80) does the source give for `O=C1NC(CO)C(=O)NC1CO` (centres undefined) here?
A: 90 % of control

Q: And the T/C (dose: 25.0 mg/kg/injection, schedule: Q01DX009 (ip), vehicle: distilled water + Tween-80)?
A: 92 % of control

Q: What about the T/C (dose: 50.0 mg/kg/injection, schedule: Q01DX009 (ip), vehicle: distilled water + Tween-80) of the same molecule?
A: 90 % of control

Q: And the T/C [4]?
A: 98 % of control

Q: What about the T/C (dose: 50.0 mg/kg/injection, schedule: Q04DX003 (ip), vehicle: saline with Tween-80) of the same molecule?
A: 100 % of control

Q: What about the T/C [1] of the same molecule?
A: 93 % of control

Q: What about the T/C [5] of the same molecule?
A: 95 % of control

Q: And the T/C [11]?
A: 100 % of control

Q: And the T/C [2]?
A: 90 % of control

Q: What about the T/C [6] of the same molecule?
A: 98 % of control

Q: And the T/C [12]?
A: 99 % of control

Q: What about the T/C (dose: 400.0 mg/kg/injection, schedule: Q01DX009 (ip), vehicle: distilled water + Tween-80) of the same molecule?
A: 90 % of control

Q: And the T/C [7]?
A: 104 % of control

Q: What about the T/C [13] of the same molecule?
A: 99 % of control

Q: With `CC1C=CCC(C)(C#N)C1` (centres undefined) as the molecule, how does the T/C (dose: 50.0 mg/kg/injection, schedule: Q01DX009 (ip), vehicle: Klucel (hydroxypropylcellulose) (HPC)) read?
A: 103 % of control

Q: What about the T/C (dose: 100.0 mg/kg/injection, schedule: Q01DX009 (ip), vehicle: Klucel (hydroxypropylcellulose) (HPC)) of the same molecule?
A: 100 % of control

Q: What about the T/C (dose: 200.0 mg/kg/injection, schedule: Q01DX009 (ip), vehicle: Klucel (hydroxypropylcellulose) (HPC)) of the same molecule?
A: 108 % of control

Q: `C=CCOC(=O)OCCO` was tested. Which T/C (dose: 60.0 mg/kg/injection, schedule: Q01DX005 (ip), vehicle: saline) did it give?
A: 101 % of control

Q: What about the T/C (dose: 120.0 mg/kg/injection, schedule: Q01DX005 (ip), vehicle: saline) of the same molecule?
A: 108 % of control

Q: What about the T/C (dose: 240.0 mg/kg/injection, schedule: Q01DX005 (ip), vehicle: saline) of the same molecule?
A: 99 % of control

Q: Which results are given for `CC[N+](CC)=c1cc2oc3cc(N(C)C)ccc3nc-2cc1C`?
A: T/C (dose: 6.25 mg/kg/injection, schedule: Q01DX005 (ip), vehicle: saline with Tween-80): 99 % of control and 107 % of control; T/C (dose: 6.25 mg/kg/injection, schedule: Q01DX005 (ip), vehicle: saline): 107 % of control; T/C (dose: 12.5 mg/kg/injection, schedule: Q01DX005 (ip), vehicle: saline with Tween-80): 106 % of control and 110 % of control; T/C (dose: 12.5 mg/kg/injection, schedule: Q01DX005 (ip), vehicle: saline): 112 % of control; T/C (dose: 25.0 mg/kg/injection, schedule: Q01DX005 (ip), vehicle: saline with Tween-80): 109 % of control and 115 % of control; T/C (dose: 25.0 mg/kg/injection, schedule: Q01DX005 (ip), vehicle: saline): 122 % of control; T/C [14]: 109 % of control and 110 % of control and 112 % of control

Q: For `CC(=O)c1ccccc1C(C)C`, which T/C (dose: 25.0 mg/kg/injection, schedule: Q01DX009 (ip), vehicle: saline with Tween-80) is on record?
A: 100 % of control

Q: And the T/C (dose: 50.0 mg/kg/injection, schedule: Q01DX009 (ip), vehicle: saline with Tween-80)?
A: 109 % of control

Q: What about the T/C [15] of the same molecule?
A: 119 % of control

Q: How did the T/C (dose: 1.56 mg/kg/injection, schedule: Q01DX009 (ip), vehicle: saline with Tween-80) turn out when `C[N+](C)(C)C[c-]1[c-][c-][c-][c-]1.[Fe].[c-]1[c-][c-][cH-][c-]1` was run?
A: 96 % of control

Q: And the T/C (dose: 3.13 mg/kg/injection, schedule: Q01DX009 (ip), vehicle: saline with Tween-80)?
A: 97 % of control

Q: What about the T/C (dose: 6.25 mg/kg/injection, schedule: Q01DX009 (ip), vehicle: saline with Tween-80) of the same molecule?
A: 99 % of control

Q: And the T/C (dose: 12.5 mg/kg/injection, schedule: Q01DX009 (ip), vehicle: saline with Tween-80)?
A: 100 % of control

Q: How did the T/C [15] turn out when `COc1cc2c(cc1OC)C(Cc1ccc3cc(OC)c(OC)cc3c1)=NCC2` was run?
A: 90 % of control

Q: What about the T/C (dose: 200.0 mg/kg/injection, schedule: Q01DX009 (ip), vehicle: saline with Tween-80) of the same molecule?
A: 90 % of control

Q: And the T/C (dose: 400.0 mg/kg/injection, schedule: Q01DX009 (ip), vehicle: saline with Tween-80)?
A: 100 % of control
